Measurements reported in US20060258576A1, “Gdnf-related neuropeptides” (Licentia, Ltd, priority 2003, published 2006).
Entries after “also recorded” stand apart in the source; their conditions may differ. No end group written: not given here.

What was measured:
hippocampus area CA1 = assay: Extracellular recordings (pEPSPs, population spikes) in acute rat hippocampal brain slice preparation; type: cell-based; settings: for pEPSPs, fraction of control (FIG. 4D) / pSpikes, fraction of control (FIG. 4C): 10 nM SEQ ID NO:11, 20 nM SEQ ID NO:9 and SEQ ID NO:15, 250 μM NEM, adult rat hippocampus; for excitatory synaptic input into primary cells in the rat CA1: acute rat hippocampal brain slice; for reversal of effects upon removal of peptide from the superfusate: washout
adult rat brain = assay: Binding of I125-labeled peptides to adult rat brain slices (autoradiography)
Text: (§1) The binding of I^125-labeled peptides to embryonic and adult rodent tissues was studied in vitro. Chemically synthesized peptides containing an extra N-terminal tyrosine (Sigma-Genosys, Cambridge, UK) were labeled with lactoperoxidase (Trupp et al. (1995) J. Cell Biol. 130(1): 137-148). Specific activities obtained for each were 0.5-2.5×10^14 cpm/mmol, except for SEQ ID NO:9 10^13 cpm/mmol. From both E17 Wistar rat and E15 mouse embryos, kidneys, gut, pancreas and spinal cord were dissected. In addition, testes, ovaries, brain and adrenal glands of the embryonic mice were taken. The binding was performed and paraffin sections of embryonic tissues were processed as described (Partanen et al. (1987) Dev Biol 120(1): 186-197). Freshly cut adult rat brain slices of 1 mm were cut and incubated in 0.5-1 nmol/ml of ^125I-peptides, washed and processed for paraffin sections. Kodak (Rochester, N.Y.) NTB-2 emulsion was used for autoradiography and the samples were exposed from 3 to 12 weeks at +4° C. The sections were developed with Kodak D19 and stained with hematoxylin.
For immunohistochemical staining of tissues, paraffin sections were mounted with Immumount (Shandon, Pittsburgh, Pa.). Sections were stained with an anti-class III β-tubulin antibody (Tuj1; Covance Inc., Princeton, N.J.), which recognizes selectively neuronal cells. […]

embryonic mouse tissues = assay: Binding of I125-labeled peptides to embryonic mouse tissues (autoradiography, Tuj1 staining)
Text: as §1
For immunohistochemical staining of tissues, paraffin sections were mounted with Immumount (Shandon, Pittsburgh, Pa.). Sections were stained with an anti-class III β-tubulin antibody (Tuj1; Covance Inc., Princeton, N.J.), which recognizes selectively neuronal cells. Staining was performed with Vectastain kit (Vector Laboratories, Burlingame, Calif.) according to manufacturer's instructions, except that the primary antibody (1:300) was incubated in +4° C. o/n.

synaptic transmission = settings: Qian et al (1997); cited from earlier work
ureteric branching = settings: Sainio et al. (1997); cited from earlier work
primary neurons = settings: U. Arumäe, personal communication; cited from earlier work
[1] = 10 nM peptide in the presence of 250 μM NEM
[2] = superfusion with 10-50 nM, 0.05 Hz stimulation of Schaffer collateral fibres, CA1, slices from P28-P35 rats

Question: With “LLEAPAEDHSL(a) (LLEAPAEDHSL-NH2; not fully specified) [SEQ ID NO:11, GDNF precursor-derived neuropeptide; mouse, rat]” as the molecule, how does the “pEPSPs, fraction of control (FIG. 4D)” value (hippocampus area CA1) read?
Answer: substantially increases

Question: And the “pSpikes, fraction of control (FIG. 4C)” value (hippocampus area CA1)?
Answer: substantially increases

Question: And the “pEPSPs when peptide is added to NEM” value (hippocampus area CA1; [1])?
Answer: no further increase

Question: And the “pSpikes when peptide is added to NEM” value (hippocampus area CA1; [1])?
Answer: no further increase

Question: What about the “increase in presynaptic volley with or without NEM (FIG. 4 A, B)” value (hippocampus area CA1; 10 nM peptide, absence or presence of 250 μM NEM) of the same molecule?
Answer: seen only in the absence of NEM

Question: And the “average increase in the presynaptic fiber volley” value (hippocampus area CA1; CA1, rat hippocampal slices)?
Answer: 34%

Question: And the “excitatory synaptic input into primary cells in the rat CA1” value (hippocampus area CA1)?
Answer: modulate

Question: And the “effect on excitability in the presence of a Gi/o-blocking agent” value (hippocampus area CA1; in the presence of NEM (FIG. 4 B, C, D))?
Answer: no effect

Question: And the “effective concentrations on pEPSP and pSpike (FIG. 6)” value (hippocampus area CA1; increasing concentrations)?
Answer: nanomolar

Question: What about the “increase of pEPSPs” value (hippocampus area CA1; [2]) of the same molecule?
Answer: 30-40%

Question: And the “increase of population spikes (pSPs)” value (hippocampus area CA1; [2])?
Answer: 30-40%

Question: What about the “reversal of effects upon removal of peptide from the superfusate” value (hippocampus area CA1) of the same molecule?
Answer: fully or almost fully reversed

Question: And the specific binding (adult rat brain; I125-labeled peptide with extra N-terminal tyrosine, 0.5-1 nmol/ml)?
Answer: specific binding

Question: And the “binding to adult rat brain slices (FIG. 3 A-D)” value (adult rat brain; I125-labeled peptide, sections containing the hippocampal area)?
Answer: extensive binding exclusively in adult rat brain; also recorded: intensive binding

Question: For “FPLPA(a) (FPLPA-NH2; not fully specified) [SEQ ID NO:9, GDNF precursor-derived neuropeptide; human, mouse, rat]”, which “presynaptic fiber volley (in words)” value (hippocampus area CA1; CA1, rat hippocampal slices) is on record?
Answer: significant decrease

Question: And the “change of pSPs” value (hippocampus area CA1; CA1, rat hippocampal slices, concentration not given)?
Answer: −24%

Question: What about the “excitatory synaptic input into primary cells in the rat CA1” value (hippocampus area CA1) of the same molecule?
Answer: modulate

Question: And the “reversal of effects upon removal of peptide from the superfusate” value (hippocampus area CA1)?
Answer: fully or almost fully reversed

Question: What about the specific binding (embryonic mouse tissues; I125-labeled peptide with extra N-terminal tyrosine) of the same molecule?
Answer: specific binding

Question: And the “tissue distribution of binding” value (embryonic mouse tissues; I125-labeled peptide, E15 mouse embryo tissues)?
Answer: restricted to embryonic mouse tissues outside the CNS; also recorded: bound to embryonic (E15) mouse tissues

Question: And the binding in testis (embryonic mouse tissues; embryonic mouse testis (FIG. 3 I, J))?
Answer: binding to the interstitium

Question: What about the “distribution of binding versus neuronal β-tubulin (Tuj1) staining” value (embryonic mouse tissues; gut and metanephric kidney capsule (FIG. 3 E-H)) of the same molecule?
Answer: closely overlapped

Question: Which “levels necessary for inhibition of synaptic transmission” value (synaptic transmission) does the source give for neuropeptide Y [NPY] here?
Answer: 1 µM

Question: For “PYY3-36: peptide YY fragment, literature comparison”, which “levels necessary for inhibition of synaptic transmission” value (synaptic transmission) is on record?
Answer: 1 µM

Question: What does the source list for `CCN1C(=O)C=CC1=O` [NEM, N-ethylmaleimide, reference compound]?
Answer: pEPSPs, fraction of control (FIG. 4D) (hippocampus area CA1): increases; pSpikes, fraction of control (FIG. 4C) (hippocampus area CA1): increases; stimulus-evoked responses (hippocampus area CA1; NEM by bath perfusion, every slice recorded): increased

B1: glial cell line-derived neurotrophic factor (protein, UniProt P39905 78-211, looked up)
Glial cell line-derived …: SPDKQMAVLPRRERNRQAAAANPENSRGKGRRGQRGKNRGCVLTAIHLNVTDLGLGYETKEELIFRYCSGSCDAAETTYDKILKNLSRNRRLVSDKVGQACCRPIAFDDDLSFLDDNLVYHILRKHSAKRCGCI
notes: neurotrophic factor, literature comparison
Question: Which results are given for B1?
Answer: concentrations required for promotion of ureteric branching (ureteric branching): nanomolar; concentrations required for maintenance of primary neurons (primary neurons): nanomolar
